Test results taken from article PMC7893821, “A conserved PI(4,5)P2–binding domain is critical for immune regulatory function of DOCK8” (Life Science Alliance, 2021).
Substitutions are numbered along the chain they refer to.

Columns and labels:
Assay in all cases: isothermal titration calorimetry
Assay type in all cases: binding
DOCK8 DHR-1 domain [1] = biological target: T1, DOCK8 DHR-1 domain (Mus musculus, UniProt Q8C147)
T1 construct: DHR-1 domain, residues 558-740, pGEX6P-1, E. coli ArcticExpress DE3; GST tag cut with PreScission for ITC, GST fusion kept in vesicle assays
T1 sequence (Q8C147 558-740): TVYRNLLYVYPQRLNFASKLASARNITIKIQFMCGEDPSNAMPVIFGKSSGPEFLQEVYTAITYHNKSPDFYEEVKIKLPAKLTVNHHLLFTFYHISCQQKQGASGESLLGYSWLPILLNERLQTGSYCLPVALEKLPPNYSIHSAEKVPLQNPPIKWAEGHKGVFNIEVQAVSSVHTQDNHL

DOCK8 DHR-1 domain [2] = biological target: T2, DOCK8 DHR-1 domain (Mus musculus, UniProt Q8C147, K576A/R581A); settings: 20 mM Tris-HCl pH 8.0, 16 mM NaCl, 25 °C; GST tag removed
T2 construct: DHR-1 domain, residues 558-740, pGEX6P-1, E. coli ArcticExpress DE3; GST tag cut with PreScission for ITC, GST fusion kept in vesicle assays
T2 sequence (Q8C147 558-740 K576A/R581A): T1 sequence (Q8C147 558-740) with K19A, R24A

DOCK8 DHR-1 domain [3] = biological target: T3, DOCK8 DHR-1 domain (Mus musculus, UniProt Q8C147, R581A)
T3 construct: DHR-1 domain, residues 558-740, pGEX6P-1, E. coli ArcticExpress DE3; GST tag cut with PreScission for ITC, GST fusion kept in vesicle assays
T3 sequence (Q8C147 558-740 R581A): T1 sequence (Q8C147 558-740) with R24A

DOCK8 DHR-1 domain [4] = biological target: T4, DOCK8 DHR-1 domain (Mus musculus, UniProt Q8C147, K576A)
T4 construct: DHR-1 domain, residues 558-740, pGEX6P-1, E. coli ArcticExpress DE3; GST tag cut with PreScission for ITC, GST fusion kept in vesicle assays
T4 sequence (Q8C147 558-740 K576A): T1 sequence (Q8C147 558-740) with K19A
Description: (§1) isothermal titration calorimetry on DOCK8 DHR-1 domain | Mutations R570A, K576A, and R581A led to two to threefold reduction in the binding affinity

DOCK8 DHR-1 domain [5] = biological target: T5, DOCK8 DHR-1 domain (Mus musculus, UniProt Q8C147, R570A)
T5 construct: DHR-1 domain, residues 558-740, pGEX6P-1, E. coli ArcticExpress DE3; GST tag cut with PreScission for ITC, GST fusion kept in vesicle assays
T5 sequence (Q8C147 558-740 R570A): T1 sequence (Q8C147 558-740) with R13A
Description: as §1

| SMILES | Kd (DOCK8 DHR-1 domain [1]) | no binding detected (DOCK8 DHR-1 domain [2]) | Kd (DOCK8 DHR-1 domain [3]) | Kd (DOCK8 DHR-1 domain [4]) | Kd (DOCK8 DHR-1 domain [5]) |
| --- | --- | --- | --- | --- | --- |
| CCCCCCCC(=O)OC[C@H](COP(=O)(O)O[C@H]1[C@H](O)[C@@H](OP(=O)(O)O)[C@H](OP(=O)(O)O)[C@@H](OP(=O)(O)O)[C@H]1O)OC(=O)CCCCCCC [diC8-PI(3,4,5)P3] | 26.9 ± 3 µM |  |  |  |  |
| CCCCCCCC(=O)OC[C@H](COP(=O)(O)O[C@@H]1[C@H](O)[C@H](O)[C@@H](OP(=O)(O)O)[C@H](OP(=O)(O)O)[C@H]1O)OC(=O)CCCCCCC [diC8-PI(4,5)P2] | 19.5 ± 3.7 µM | Consistently, no binding was observed for KARA mutant. | 64.2 ± 7.7 µM | 37.1 ± 8 µM | 42.9 ± 3.1 µM |
